Results taken from patent publication US20040038861A1, “Methods and compositions for normalizing lipid levels in mammalian tissues” (priority 2001, published 2004).

Columns and labels:
soleus muscle [1] = assay: cAMP content of isolated soleus muscle from high fat-fed rats; type: cell-based, rat
Method: Soleus muscle preparation. All experiments were performed according to protocols approved by the Institutional Animal Ethics Committee. 5-6 week-old male Wistar rats (160 g) were kept on a 12:12-h light/dark cycle, and fed and watered ad libitum. Animals were anaesthetised with 50 mg/kg Nembutal (pentobarbitone sodium), then sacrificed by cervical dislocation. Soleus muscles were dissected under oxygenated KHB (118 mM NaCl, 4.75 mM KCl, 1.2 mM MgSO4, 24.8 mM NaHCO3, 1.2 mM KH2PO4, 2.54 mM CaCl2, 10 mM glucose, pH 7.4) and teased into halves, then incubated as described below.
For the measurement of cAMP in muscle, isolated soleus strips were incubated with stated concentrations of peptides, then lyophilized and deproteinized. Each strip was placed in 400 μl of 0.5 M HClO4 with 5 mM EDTA (phosphodiesterase inhibitor) and sonicated three times in 20 s bursts. Tubes were heated for 3-5 min in boiling water to coagulate protein, then centrifuged (12,000 g, 4° C., 2 min). Supernatant (300 μl) was taken and the pH adjusted to 7.0 with 75 μl of 2 M NH4OH. The samples were refrigerated (4° C., 2 h) to precipitate proteins, then centrifuged under the same conditions as above and 50 μl taken for cAMP measurement.

Wistar rats = assay: Tissue free fatty acid and triglyceride content following infusion in normal-fed rats; type: in vivo, rat
Method: Surgery. Experiments were performed on male Wistar rats. Animals were randomly assigned to experimental groups as outlined below. Induction and maintenance of surgical anesthesia was by 3-5% halothane and 2L oxygen. An initial blood sample was taken from a tail artery for measurement of baseline levels of blood glucose and lactate, electrolyte, acid base and oxygen status and serum levels of free fatty acids, triglyceride and cholesterol. Immediately following this, the trachea was cannulated and the animal ventilated at 60-70 breaths.min-1 with air supplemented with O2. The respiratory rate and end-tidal pressure (10-15 cmH2O) were adjusted to maintain end-tidal CO2 at 35-40 mmHg. Body temperature was maintained at 37° C. throughout surgery and the experiment by a heating pad. The carotid artery and jugular vein were cannulated with a solid-state blood pressure transducer and a saline filled PE 50 catheter respectively. For the antagonist infusion studies, surgery was similar to above with the alteration being that both the carotid artery and jugular vein were cannulated with saline filled PE 50 catheters. Fluids (saline or hormone dissolved in saline) were delivered to the jugular vein with a Y-connector to join the two lines. The carotid artery line was connected to a blood pressure transducer. Blood samples were taken from this line at time zero (baseline reading), 30 minutes and every 20 minutes until the end of the experiment at 90 minutes.
Infusion. […] Blood glucose measurements were taken from tail capillaries at 5-minute intervals throughout the duration of the experiment. At the end of the infusion a terminal blood sample was taken by cardiac puncture and analysed as per the basal sample and also for various metabolites and hormones. Serum and plasma samples were stored at −80° C. until future analysis. Animals were killed by cervical dislocation and harvested tissues (brain, liver, kidney, soleus muscle, extensor digitorum longus muscle, left ventricle, retroperitoneal and epididymal fat pads) snap frozen in liquid N2 and stored at −80° C. until future analysis. For the antagonist studies, the protocols was the same as above with the following changes: Infusion was a combination of antagonist, CGRP or saline.

soleus muscle [2] = assay: Masoprocol effect on CGRP1-evoked NEFA and triglyceride contents in soleus muscle from high fat-fed rats; type: cell-based, rat
Text: Masoprocol, (nordihydroguaiaretic acid), is a lipoxygenase inhibitor, that has been identified as the active component of Creosote bush extracts. Oral administration of this compound lowers serum NEFA and triglyceride concentrations in rats with fructose-induced hypertriglyceridemia (Gowri et al. 2000, Am. J. Physiol. 279: E593-E600), and decrease blood glucose and triglyceride concentrations in a fat-fed/streptozotocin rat model (Reed et al. 1999, Diabetologia 42: 102-106).

[3] = 1 pM CGRP1, high fat-fed soleus
[4] = 100 nM CGRP1, high fat-fed soleus

rat CGRP-1
cAMP content, agonist alone (soleus muscle [1]; 1 pM CGRP, control 5.7±0.2): 8.6 ± 0.4 pmol/mg
cAMP content, agonist alone (soleus muscle [1]; 100 nM CGRP1, control 5.7±0.2): 9.3 ± 1 pmol/mg
FFA content, Heart (Wistar rats; CGRP 100 pmol/kg/min 1 h, CGRP-(8-37) 10 nmol/kg/min 90 minutes, control 0.8 ± 0.2): 0.9 ± 0.1 µmol/g
FFA content, Liver (Wistar rats; same infusions, control 0.1 ± 0.01): 0.7 ± 0.1 µmol/g
FFA content, Soleus Muscle (Wistar rats; same infusions, control 0.2 ± 0.02): 0.6 ± 0.07 µmol/g
FFA content, Kidney (Wistar rats; same infusions, control 0.8 ± 0.1): 0.9 ± 0.2 µmol/g
FFA content, Epi Adipose (Wistar rats; same infusions, control 2.1 ± 0.5): 2.7 ± 0.7 µmol/g
triglyceride content, Kidney (Wistar rats; same infusions, control 2.8 ± 0.5): 2.4 ± 0.4 µmol/g
triglyceride content, Heart (Wistar rats; same infusions, control 2.9 ± 0.4): 2.6 ± 0.4 µmol/g
triglyceride content, Soleus Muscle (Wistar rats; same infusions, control 3.7 ± 0.4): 1.5 ± 0.2 µmol/g
triglyceride content, Liver (Wistar rats; same infusions, control 4.3 ± 0.3): 2.2 ± 0.5 µmol/g
triglyceride content, Epi Adipose (Wistar rats; same infusions, control 5.1 ± 1.2): 5.0 ± 0.9 µmol/g
NEFA elevation (soleus muscle [2]; [3]): 482 ± 99 nmol/g
soleus triglyceride content (decrement) (soleus muscle [2]; [3]): 1.2 mmol/g
NEFA elevation (soleus muscle [2]; [4]): 533 ± 114 nmol/g
soleus triglyceride content (decrement) (soleus muscle [2]; [4]): 1.2 mmol/g
